Inconclusive results and toxic doses are left out. How the source made its calls: active means survival T/C of 150% or more; inactive means T/C below 125% in these data. Non-standard residues stand in square brackets, D forms with d. Residues, ends and D or L forms follow the SMILES beside them. ξ: configuration not given here. ξF = NC(Cc1ccccc1)C(=O)O; Ac5c = NC1(C(=O)O)CCCC1
Test system: CD2F1 mice, L1210 leukemia ip, survival T/C
Test: NCI In Vivo Anticancer Drug Screen. Data for tumor model L1210 Leukemia (intraperitoneal) in CD2F1 (CDF1) mice
Settings: endpoint: mean survival time, higher = longer survival
Method in brief: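 Read-out first: treated-group measurement over vehicle-control measurement, expressed as a ratio. Animals bore a transplanted tumor line and were dosed with compound or vehicle.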

[1] = dose: 100.0 mg/kg/injection, schedule: Q01DX001 (ip), vehicle: saline
[2] = dose: 200.0 mg/kg/injection, schedule: Q01DX001 (ip), vehicle: saline
[3] = dose: 400.0 mg/kg/injection, schedule: Q01DX001 (ip), vehicle: saline
[4] = dose: 50.0 mg/kg/injection, schedule: Q01DX009 (ip), vehicle: saline
[5] = dose: 100.0 mg/kg/injection, schedule: Q01DX009 (ip), vehicle: saline with Tween-80
[6] = dose: 100.0 mg/kg/injection, schedule: Q01DX009 (ip), vehicle: saline
[7] = dose: 200.0 mg/kg/injection, schedule: Q01DX009 (ip), vehicle: saline with Tween-80
[8] = dose: 200.0 mg/kg/injection, schedule: Q01DX009 (ip), vehicle: saline
[9] = dose: 200.0 mg/kg/injection, schedule: Q04DX003 (ip), vehicle: saline with Tween-80
[10] = dose: 400.0 mg/kg/injection, schedule: Q01DX009 (ip), vehicle: saline with Tween-80
[11] = dose: 400.0 mg/kg/injection, schedule: Q04DX003 (ip), vehicle: saline with Tween-80
[12] = dose: 100.0 mg/kg/injection, schedule: Q04DX003 (ip), vehicle: saline with Tween-80
[13] = dose: 100.0 mg/kg/injection, schedule: Q01DX001 (ip), vehicle: saline with Tween-80
[14] = dose: 200.0 mg/kg/injection, schedule: Q01DX001 (ip), vehicle: saline with Tween-80
[15] = dose: 100.0 mg/kg/injection, schedule: Q04DX002 (ip), vehicle: saline with Tween-80
[16] = dose: 200.0 mg/kg/injection, schedule: Q04DX002 (ip), vehicle: saline with Tween-80
[17] = dose: 400.0 mg/kg/injection, schedule: Q01DX001 (ip), vehicle: saline with Tween-80
[18] = dose: 50.0 mg/kg/injection, schedule: Q01DX009 (ip), vehicle: saline with Tween-80

Measured: T/C

O=NN1CCOC1=NCCCl
inactive: dose: 3.12 mg/kg/injection, schedule: Q01DX001 (ip), vehicle: water 100 % of control | dose: 6.25 mg/kg/injection, schedule: Q01DX001 (ip), vehicle: water 96 % of control | dose: 12.5 mg/kg/injection, schedule: Q01DX001 (ip), vehicle: water 94 % of control | dose: 25.0 mg/kg/injection, schedule: Q01DX001 (ip), vehicle: water 96 % of control | dose: 50.0 mg/kg/injection, schedule: Q01DX001 (ip), vehicle: water 96 % of control | dose: 100.0 mg/kg/injection, schedule: Q01DX001 (ip), vehicle: water 102 % of control | dose: 200.0 mg/kg/injection, schedule: Q01DX001 (ip), vehicle: water 122 % of control

COc1ccc(C(=O)c2ncccc2C)cc1OC
inactive: dose: 12.5 mg/kg/injection, schedule: Q01DX009 (ip), vehicle: water 94 % of control | dose: 25.0 mg/kg/injection, schedule: Q01DX009 (ip), vehicle: water 95 % of control | dose: 50.0 mg/kg/injection, schedule: Q01DX009 (ip), vehicle: water 94 % of control | dose: 100.0 mg/kg/injection, schedule: Q01DX009 (ip), vehicle: water 94 % of control | dose: 200.0 mg/kg/injection, schedule: Q01DX009 (ip), vehicle: water 88 % of control

BrC/C(=N\N1CCCCCC1)c1ccc(-c2ccccc2)cc1
inactive: [1] 92 % of control | [2] 93 % of control | [3] 94 % of control

CN(C)C(=O)c1cccc(COc2ccc(N)cc2Cl)c1
inactive: [4] 113 % of control | [5] 90 % of control | [6] 104 % of control | [7] 93 % of control | [8] 105 % of control | [9] 87 % of control | [10] 95 % of control | [11] 89 % of control

CC(C)S(=O)(=O)/C=C(\I)c1ccccc1
inactive: dose: 100.0 mg/kg/injection, schedule: Q04DX003 (ip), vehicle: saline 100 % of control | dose: 200.0 mg/kg/injection, schedule: Q04DX003 (ip), vehicle: saline 102 % of control

C#CCOCCC(C(C)=O)C(=O)OCC (stereo not drawn)
inactive: [1] 104 % of control | [2] 100 % of control

CCOC1C=CCCC1 (stereo not drawn)
inactive: [5] 95 % of control | [12] 97 % of control | [7] 95 % of control | [9] 93 % of control | [11] 97 % of control

CCCCCCCCCCNCCC(=O)O
inactive: dose: 37.5 mg/kg/injection, schedule: Q04DX003 (ip), vehicle: saline 97 % of control | dose: 75.0 mg/kg/injection, schedule: Q04DX003 (ip), vehicle: saline 94 % of control | dose: 150.0 mg/kg/injection, schedule: Q04DX003 (ip), vehicle: saline 97 % of control

COC1(O)C(=O)c2ccccc2OC1(OC)c1ccc(C)cc1 (stereo not drawn)
inactive: dose: 50.0 mg/kg/injection, schedule: Q01DX001 (ip), vehicle: saline 102 % of control | [1] 98 % of control | [2] 96 % of control | [3] 98 % of control

COC1OC2COc3ccccc3OC2C2N=C(N)SC12 (stereo not drawn)
inactive: [13] 100 % of control | [14] 97 % of control

CC(C)OC(=O)Nc1ccccn1
inactive: [15] 100 % of control | [16] 100 % of control | dose: 400.0 mg/kg/injection, schedule: Q04DX002 (ip), vehicle: saline with Tween-80 104 % of control

COc1cc(C=O)ccc1OC1OC(C(COC(C)=O)OC(C)=O)C(OC(C)=O)C(OC(C)=O)C1OC(C)=O (stereo not drawn)
inactive: dose: 50.0 mg/kg/injection, schedule: Q01DX001 (ip), vehicle: saline with Tween-80 93 % of control | [13] 88 % of control | [14] 88 % of control

O=C1c2ccccc2C(=O)c2c(Sc3ccccc3)cccc21
inactive: [5] 97 % of control | [7] 93 % of control | [10] 92 % of control

COc1ccc(NC(=O)c2ccc(S(=O)(=O)F)cc2)cc1
inactive: [13] 97 % of control | [14] 95 % of control | [17] 94 % of control

NC(=O)c1ccccc1C(=O)O
inactive: [1] 105 % of control | [2] 102 % of control | [3] 94 % of control

CC(C)c1cc2c(cc1O)C1(C)CCCC(C)(C#N)C1CC2 (stereo not drawn)
inactive: dose: 100.0 mg/kg/injection, schedule: Q01DX009 (ip), vehicle: saline sonified 95 % of control | dose: 200.0 mg/kg/injection, schedule: Q01DX009 (ip), vehicle: saline sonified 89 % of control | dose: 400.0 mg/kg/injection, schedule: Q01DX009 (ip), vehicle: saline sonified 91 % of control

CCOc1cccc(Cc2cn(Cc3ccc(NC(=O)c4cccc(S(=O)(=O)F)c4)cc3)c(=O)[nH]c2=O)c1
inactive: dose: 75.0 mg/kg/injection, schedule: Q01DX001 (ip), vehicle: saline with Tween-80 94 % of control | dose: 150.0 mg/kg/injection, schedule: Q01DX001 (ip), vehicle: saline with Tween-80 89 % of control | dose: 300.0 mg/kg/injection, schedule: Q01DX001 (ip), vehicle: saline with Tween-80 94 % of control

O=C(CCC1CC=CCC1)c1ccccc1 (stereo not drawn)
inactive: dose: 25.0 mg/kg/injection, schedule: Q04DX002 (ip), vehicle: saline with Tween-80 111 % of control | dose: 50.0 mg/kg/injection, schedule: Q04DX002 (ip), vehicle: saline with Tween-80 96 % of control | [15] 90 % of control | [16] 93 % of control

CC(C)(C)c1ccc(C(=O)C2CC2)cc1
inactive: [12] 98 % of control | [9] 96 % of control

NC(Cc1ccccc1)C(=O)NC1(C(=O)O)CCCC1 (stereo not drawn) (H-[ξF]-[Ac5c]-OH)
inactive: [4] 100 % of control | [6] 107 % of control | [8] 107 % of control

CCC1(C#CCN2C(=O)c3ccccc3C2=O)C=CC2(CC1)OCCO2 (stereo not drawn)
inactive: [13] 101 % of control | [14] 93 % of control | [17] 91 % of control

CCCC(O)C[N+](=O)[O-] (stereo not drawn)
inactive: [6] 104 % of control | [8] 111 % of control

Cc1ccc(C(=O)c2cnc(C)n2Cc2ccccc2)cc1
inactive: [5] 92 % of control | [7] 92 % of control | [10] 97 % of control

O=C1c2ccccc2-c2cc(Br)c(NC(Cl)Cl)cc21
inactive: [13] 104 % of control | [14] 106 % of control | [17] 103 % of control

COc1cc(C(=O)C=O)cc(OC)c1OC
inactive: [18] 103 % of control | [12] 109 % of control | [9] 110 % of control

C1CC[N-]CC1.Oc1ccccc1C=NCCN=Cc1ccccc1O.[Co]
inactive: dose: 1.56 mg/kg/injection, schedule: Q04DX002 (ip), vehicle: saline with Tween-80 109 % of control | dose: 3.13 mg/kg/injection, schedule: Q04DX002 (ip), vehicle: saline with Tween-80 98 % of control

FC(F)=C(F)I
inactive: dose: 50.0 mg/kg/injection, schedule: Q01DX009 (ip), vehicle: other 95 % of control | dose: 100.0 mg/kg/injection, schedule: Q01DX009 (ip), vehicle: other 103 % of control | dose: 200.0 mg/kg/injection, schedule: Q01DX009 (ip), vehicle: other 103 % of control

CCCCCCCCCC(=O)Nc1ccc(C(=O)OCC)cc1
inactive: [5] 95 % of control | [7] 97 % of control | [10] 98 % of control

CC(C)(CCC(=O)O)c1cccc(Cl)c1
inactive: [18] 96 % of control | [5] 93 % of control

N#CC1(C2(C#N)CCCCC2)CCCCC1
inactive: dose: 100.0 mg/kg/injection, schedule: Q01DX001 (ip), vehicle: Klucel (hydroxypropylcellulose) (HPC) 116 % of control | dose: 200.0 mg/kg/injection, schedule: Q01DX001 (ip), vehicle: Klucel (hydroxypropylcellulose) (HPC) 92 % of control | dose: 400.0 mg/kg/injection, schedule: Q01DX001 (ip), vehicle: Klucel (hydroxypropylcellulose) (HPC) 100 % of control
